From ChEMBL document CHEMBL1138082, “Structural requirements for the substrates of the H+/peptide cotransporter PEPT2 determined by three-dimensional quantitative structure-activity relationship analysis” (J Med Chem, 2006) come the findings set out here.

The target in assay [1] is T1, Solute carrier family 15 member 1 (Homo sapiens, UniProt P46059).
T1 sequence (P46059 whole entry): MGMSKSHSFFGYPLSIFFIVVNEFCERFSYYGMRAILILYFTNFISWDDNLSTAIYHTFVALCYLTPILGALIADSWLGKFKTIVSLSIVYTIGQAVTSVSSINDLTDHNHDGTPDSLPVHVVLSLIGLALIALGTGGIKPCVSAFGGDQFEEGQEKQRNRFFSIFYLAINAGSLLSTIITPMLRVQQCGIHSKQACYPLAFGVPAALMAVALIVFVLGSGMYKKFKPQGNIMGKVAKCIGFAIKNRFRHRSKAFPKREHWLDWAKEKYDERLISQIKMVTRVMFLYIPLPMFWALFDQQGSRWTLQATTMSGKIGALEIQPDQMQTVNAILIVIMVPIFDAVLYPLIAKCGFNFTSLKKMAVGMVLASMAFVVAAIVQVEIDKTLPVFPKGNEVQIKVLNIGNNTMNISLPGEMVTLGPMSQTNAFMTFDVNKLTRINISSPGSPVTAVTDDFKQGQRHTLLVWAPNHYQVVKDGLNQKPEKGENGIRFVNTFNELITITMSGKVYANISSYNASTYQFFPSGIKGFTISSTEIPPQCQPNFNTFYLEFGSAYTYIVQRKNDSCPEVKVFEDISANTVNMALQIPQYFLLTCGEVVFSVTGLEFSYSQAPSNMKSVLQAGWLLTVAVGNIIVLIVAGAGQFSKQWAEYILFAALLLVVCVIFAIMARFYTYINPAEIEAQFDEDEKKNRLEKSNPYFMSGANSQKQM
Description: Displacement of [14C]Gly-Sar from human PEPT1 in Caco-2 cells. It is filed as cell-based. On the technique in general: In a radioligand displacement assay an active substance lowers the binding of a labelled ligand.

Assay [2] can be described thus: Selectivity for rat PEPT2 over human PEPT1.
Assay [3] deals with T2, Solute carrier family 15 member 2 (Rattus norvegicus, UniProt Q63424).
T2 sequence (Q63424 whole entry): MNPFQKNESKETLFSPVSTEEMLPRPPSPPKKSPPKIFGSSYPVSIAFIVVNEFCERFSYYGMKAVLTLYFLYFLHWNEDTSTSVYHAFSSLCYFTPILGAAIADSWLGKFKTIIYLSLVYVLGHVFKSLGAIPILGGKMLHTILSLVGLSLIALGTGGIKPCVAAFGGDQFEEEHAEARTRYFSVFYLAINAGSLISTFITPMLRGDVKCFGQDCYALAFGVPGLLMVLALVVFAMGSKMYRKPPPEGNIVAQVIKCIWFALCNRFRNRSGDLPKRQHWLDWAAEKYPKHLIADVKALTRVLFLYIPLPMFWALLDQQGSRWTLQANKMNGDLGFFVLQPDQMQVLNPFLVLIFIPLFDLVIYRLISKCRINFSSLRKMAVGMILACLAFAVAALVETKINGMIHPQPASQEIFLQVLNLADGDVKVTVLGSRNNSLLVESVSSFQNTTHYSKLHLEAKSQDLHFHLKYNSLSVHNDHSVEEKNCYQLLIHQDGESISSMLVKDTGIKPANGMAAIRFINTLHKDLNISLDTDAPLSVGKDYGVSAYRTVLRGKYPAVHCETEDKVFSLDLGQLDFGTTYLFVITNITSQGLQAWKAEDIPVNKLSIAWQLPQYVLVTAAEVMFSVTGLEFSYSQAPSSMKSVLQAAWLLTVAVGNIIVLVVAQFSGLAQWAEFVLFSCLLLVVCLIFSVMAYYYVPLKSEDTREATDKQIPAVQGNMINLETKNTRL
Kind of assay: Displacement of [14C]Gly-Sar from rat PEPT2 in SKPT0193 C1.2 cells. It is filed as cell-based.

SMILES strings stand for the structures. Residues, ends and D or L forms follow the SMILES beside them.

The Ki is a measure of affinity in units of concentration, obtained from inhibition or displacement. Low readings indicate higher affinity, high ones lower affinity. For the compound `C[C@H](NC(=O)[C@H](Cc1ccccc1)NC(=O)c1ccccc1)C(=O)O`, the Ki amounted to 20 µM in assay [1] and 3.7 µM in assay [3]. For the same compound, the log selectivity ratio in assay [2] was determined as 0.7.

`CC(C)C[C@H](N)C(=O)N[C@@H](C)C(=O)N[C@@H](CCCNC(=N)N)C(=O)O` (H-Leu-Ala-Arg-OH): the Ki in assay [1] is 100 µM; in assay [3], 1200 µM.

On to `CC(C)C[C@H](N)C(=O)N[C@@H](C)C(=O)N[C@@H](CCCN=C(N)N)C(=O)O` (H-Leu-Ala-Arg-OH), for which the log selectivity ratio in assay [2] is -1.1.

`C[C@H](NC(=O)[C@@H](N)Cc1c[nH]c2ccccc12)C(=O)O` (H-Trp-Ala-OH): the log selectivity ratio in assay [2] worked out at 1.7. Moreover, the Ki in assay [3] amounted to 4 µM.
